Laboratory results from patent US12172996B2, “Methyl {4,6-diamino-2-[5-fluoro-1-(2-fluorobenzyl)-1H-pyrazolo[3,4-b]pyridin-3-yl]pyrimidin-5-yl}carbamate active compound product having improved properties, production and formulation thereof” (Adverio Pharma GmbH, priority 2018, dated 2024).
Blank lines part the entries; values can stand above or below the compound they belong to.

Experiments:
[1] = Determination of particle size distribution (Sympatec Helos, wet dispersion unit); type: physicochemical; conditions: 5 min ultrasound; for X10%: diameter below which 10% of the particles lie; for X50%: diameter below which 50% of the particles lie; for X90%: diameter below which 90% of the particles lie
Method: Determination of particle size distribution. Determination of particle size distribution is performed using a Sympatec Helos instrument fitted with a wet dispersion unit. To produce the dispersion medium 10-25 mg of the active compound product of the compound of formula (I) (micronized or non-micronized) are predispersed with 10 ml of water/1 drop of Tween 20 in a small vessel. The dispersion is stirred but not shaken to avoid foam formation. The dispersed material is subsequently added to the deionized water (approx. 0.51) in the wet dispersion unit, treated with ultrasound for 5 minutes and measured (10 seconds). The sound exposure time is 5 minutes, a 50 mm aperture is employed (R2, or if measurement range exceeded, R3), the optical density of the suspension is 10-25%, the stirring/pumping speed is set to 50% (40-60%) and evaluation is carried out after 5 minutes of ultrasound.
The three columns X10%, X50% and X90% indicate the diameter below which 10%, 50% and 90% respectively of the particles of the analysed active compound product lie.

[2] = ATR IR of the modification after micronization; type: physicochemical
Source text: 16.1 kg of methyl {4,6-diamino-2-[5-fluoro-1-(2-fluorobenzyl)-1H-pyrazolo[3,4-b]pyridin-3-yl]pyrimidin-5-yl}carbamate of formula (I) in the crystalline form of modification I, produced according to example 13, method E of WO 2013/076168, were micronized to afford 15.2 kg. The yield was 94.4%. […] The ATR IR diagram corresponds to the IR spectrum of the compound of formula (I) in modification I according to FIG. 1 of WO 2013/076168.
39.0 kg of methyl {4,6-diamino-2-[5-fluoro-1-(2-fluorobenzyl)-1H-pyrazolo[3,4-b]pyridin-3-yl]pyrimidin-5-yl}carbamate of formula (I) in the crystalline form of modification I, produced by the process according to the invention of example 4, were micronized to afford 36.9 kg. The yield was 94.6%.
The ATR IR diagram corresponds to the IR spectrum of the compound of formula (I) in modification I according to FIG. 1 of WO 2013/076168.

X10% ([1]; listed as 2-1): 1.0 μm
X50% ([1]; listed as 2-1): 11.1 μm
X90% ([1]; listed as 2-1): 43.0 μm
SMILES: COC(=O)Nc1c(N)nc(-c2nn(Cc3ccccc3F)c3ncc(F)cc23)nc1N [Batch 2-1]

X10% ([1]; listed as 2-2): 0.9 μm
X50% ([1]; listed as 2-2): 4.2 μm
X90% ([1]; listed as 2-2): 31.9 μm
SMILES: COC(=O)Nc1c(N)nc(-c2nn(Cc3ccccc3F)c3ncc(F)cc23)nc1N [Batch 2-2]

X10% ([1]; listed as 2-3): 1.0 μm
X50% ([1]; listed as 2-3): 4.3 μm
X90% ([1]; listed as 2-3): 27.4 μm
SMILES: COC(=O)Nc1c(N)nc(-c2nn(Cc3ccccc3F)c3ncc(F)cc23)nc1N [Batch 2-3]

X10% ([1]; listed as 2-4): 0.5 μm
X50% ([1]; listed as 2-4): 1.8 μm
X90% ([1]; listed as 2-4): 9.5 μm
SMILES: COC(=O)Nc1c(N)nc(-c2nn(Cc3ccccc3F)c3ncc(F)cc23)nc1N [Batch 2-4]

X10% ([1]; listed as 2-5): 1.4 μm
X50% ([1]; listed as 2-5): 18.7 μm
X90% ([1]; listed as 2-5): 50.6 μm
SMILES: COC(=O)Nc1c(N)nc(-c2nn(Cc3ccccc3F)c3ncc(F)cc23)nc1N [Batch 2-5]

X10% ([1]; listed as 2-6): 1.0 μm
X50% ([1]; listed as 2-6): 9.0 μm
X90% ([1]; listed as 2-6): 34.4 μm
SMILES: COC(=O)Nc1c(N)nc(-c2nn(Cc3ccccc3F)c3ncc(F)cc23)nc1N [Batch 2-6]

X10% ([1]; listed as 2-7): 0.6 μm
X50% ([1]; listed as 2-7): 4.1 μm
X90% ([1]; listed as 2-7): 23.6 μm
SMILES: COC(=O)Nc1c(N)nc(-c2nn(Cc3ccccc3F)c3ncc(F)cc23)nc1N [Batch 2-7]

X10% ([1]; listed as 2-8): 0.6 μm
X50% ([1]; listed as 2-8): 2.6 μm
X90% ([1]; listed as 2-8): 13.6 μm
SMILES: COC(=O)Nc1c(N)nc(-c2nn(Cc3ccccc3F)c3ncc(F)cc23)nc1N [Batch 2-8]

SMILES: COC(=O)Nc1c(N)nc(-c2nn(Cc3ccccc3F)c3ncc(F)cc23)nc1N [compound of formula (I), Methyl {4,6-diamino-2-[5-fluoro-1-(2-fluorobenzyl)-1H-pyrazolo[3,4-b]pyridin-3-yl]pyrimidin-5-yl}carbamate]
Modification after micronization ([2]; produced according to example 13, method E of WO 2013/076168, 16.1 kg micronized): remained in modification I even after micronization
Modification after micronization ([2]; produced by the process according to the invention of example 4, 39.0 kg micronized): remained in modification I even after micronization
